Measurements: publication PMC4116459 (Molecular microbiology, 2014)

Key:
BcsE = BcsE (Escherichia coli, UniProt P37657); test: equilibrium dialysis with purified MBP-BcsE; assay type: binding
YcgR = target: T1, YcgR (Escherichia coli, UniProt P76010); test: […]-c-di-GMP DRaCALA with cell lysates, competed by unlabeled c-di-GMP; assay type: cell-based
T1 sequence (P76010 1-244): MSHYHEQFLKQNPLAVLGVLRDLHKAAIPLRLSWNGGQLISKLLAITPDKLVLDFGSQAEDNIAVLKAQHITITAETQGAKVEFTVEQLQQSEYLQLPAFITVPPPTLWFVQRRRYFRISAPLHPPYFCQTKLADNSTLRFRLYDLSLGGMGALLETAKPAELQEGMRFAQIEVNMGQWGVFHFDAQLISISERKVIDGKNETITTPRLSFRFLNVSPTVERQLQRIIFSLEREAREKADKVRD

BcsE, sequence (P37657 whole entry): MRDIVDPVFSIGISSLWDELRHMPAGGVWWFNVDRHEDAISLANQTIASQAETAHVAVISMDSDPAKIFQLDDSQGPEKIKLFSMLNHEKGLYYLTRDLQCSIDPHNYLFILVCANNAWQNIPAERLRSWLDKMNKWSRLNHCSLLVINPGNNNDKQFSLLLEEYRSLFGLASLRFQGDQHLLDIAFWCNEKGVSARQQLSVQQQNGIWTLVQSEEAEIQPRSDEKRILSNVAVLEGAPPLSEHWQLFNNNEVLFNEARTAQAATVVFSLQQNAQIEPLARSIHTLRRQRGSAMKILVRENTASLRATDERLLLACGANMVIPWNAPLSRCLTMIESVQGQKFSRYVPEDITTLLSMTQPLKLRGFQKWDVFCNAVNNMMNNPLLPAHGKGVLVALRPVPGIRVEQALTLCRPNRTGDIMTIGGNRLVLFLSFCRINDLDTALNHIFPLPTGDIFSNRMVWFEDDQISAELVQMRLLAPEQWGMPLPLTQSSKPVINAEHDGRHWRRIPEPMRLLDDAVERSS

Question: `Nc1nc2c(ncn2[C@@H]2O[C@@H]3COP(=O)(O)O[C@H]4[C@@H](O)[C@H](n5cnc6c(=O)[nH]c(N)nc65)O[C@@H]4COP(=O)(O)O[C@H]3[C@H]2O)c(=O)[nH]1` [c-di-GMP] was tested. Which Kd (BcsE) did it give?
Answer: 2.42 µM

Question: And the “33P-c-di-GMP DRaCALA with cell lysates, competed by unlabeled c-di-GMP” value (YcgR)?
Answer: Only the YcgR and Clp lysates produced positive signals (Fig. 1B).
